Results taken from patent US10143691B2, “Pathogenic control of apoptosis” (CSIR, priority 2014, dated 2018).
Entries after “also recorded” stand apart in the source; their conditions may differ.

Key:
Type in all cases: cell-based
ATMpSer1981 = experiment: Immunofluorescence staining of activated ATM (ATMpSer1981); settings: Ghost(3) cells, Doxorubicin 500 nM, no HIV
Protocol: (§1) For each experiment, Ghost(3) cells or IPSC-derived primary macrophages were infected or treated with 500 nM Doxorubicin on coverslips, fixed for 10 mins in fresh 4% paraformaldehyde at room temperature, then washed 3 times in PBS and permeabilised for 10 mins in ice-cold methanol at […]. Coverslips were washed once in PBS and incubated in blocking buffer (5% goat serum, 0.3% TritonX100 in PBS) for 60 mins at room temperature. Cells were incubated in primary antibody solution (1% BSA, 0.3% Triton X100 in PBS) overnight at 4° C. Double strand breaks were detected using rabbit polyclonal anti-phosphohistone H2A.X Ser139 (Cell Signaling). Activated ATM was detected using rabbit monoclonal anti-phosphoATM Ser1981 (Cell Signaling). The ability of p53 to regulate apoptosis was detected using rabbit polyclonal antiphosphop53 Ser46 (Cell Signaling). Viral p24 was detected using mouse monoclonal anti-HIV1p24 (AIDS Research and Reference Reagent Program, Division of AIDS, NIAID, NIH). HuR was detected using mouse monoclonal anti-HuR 3A2 (Santa Cruz Biotechnology). hnRNPK was detected using goat polyclonal anti-hnRNPK P20 (Santa Cruz Biotechnology). Coverslips were washed 3 times (5 mins each on an orbital shaker) with wash buffer (0.05% Tween20 in PBS), followed by incubation with secondary antibodies conjugated to either Atto550 or Atto565 or Atto647 for 60 mins at room temperature. […]

hnRNP-K [1] = experiment: Immunofluorescence of hnRNP-K cellular location in iPSC-derived macrophages; settings: iPSC-derived (primary) macrophages, Doxorubicin-treated, no HIV
Protocol: as §1

hnRNP-K [2] = experiment: Immunofluorescence of hnRNP-K cellular location in Ghost(3) cells
Protocol: For each experiment, Ghost(3) cells or IPSC-derived primary macrophages were infected or treated with 500 nM Doxorubicin on coverslips, fixed for 10 mins in fresh 4% paraformaldehyde at room temperature, then washed 3 times in PBS and permeabilised for 10 mins in ice-cold methanol at […]. Coverslips were washed once in PBS and incubated in blocking buffer (5% goat serum, 0.3% TritonX100 in PBS) for 60 mins at room temperature. Cells were incubated in primary antibody solution (1% BSA, 0.3% Triton X100 in PBS) overnight at 4° C. Double strand breaks were detected using rabbit polyclonal anti-phosphohistone H2A.X Ser139 (Cell Signaling). Activated ATM was detected using rabbit monoclonal anti-phosphoATM Ser1981 (Cell Signaling). The ability of p53 to regulate apoptosis was detected using rabbit polyclonal antiphosphop53 Ser46 (Cell Signaling). Viral p24 was detected using mouse monoclonal anti-HIV1p24 (AIDS Research and Reference Reagent Program, Division of AIDS, NIAID, NIH). HuR was detected using mouse monoclonal anti-HuR 3A2 (Santa Cruz Biotechnology). hnRNPK was detected using goat polyclonal anti-hnRNPK P20 (Santa Cruz Biotechnology). Coverslips were washed 3 times (5 mins each on an orbital shaker) with wash buffer (0.05% Tween20 in PBS), followed by incubation with secondary antibodies conjugated to either Atto550 or Atto565 or Atto647 for 60 mins at room temperature. Coverslips were washed 3 times (5 mins each on an orbital shaker) with wash buffer (0.05% Tween20 in PBS). Coverslips were incubated in equilibration buffer (0.4% glucose, 2×SCC) for 5 mins and counter stained with 1 mg/ml DAPI (4′,6-diamidino-2-phenylindole; Life Technologies). Coverslips were mounted in glox buffer (3.7 mg/ml glucose oxidase, 1 U catalase) and imaged.
For each experiment, cells were infected or treated with drugs on coverslips, fixed for 10 mins in fresh 4% paraformaldehyde at room temperature, then washed 3 times in PBS and permeabilised for 10 mins in ice-cold methanol at −20° C. Coverslips were washed once in PBS and incubated in blocking buffer (5% goat serum, 0.3% Triton-X100 in PBS) for 60 mins at room temperature. Cells were incubated in primary antibody solution (1% BSA, 0.3% Triton X-100 in PBS) overnight at 4° C. Double strand breaks were detected using rabbit polyclonal anti-phospho-histone H2A.X Ser139 (Cell Signaling). Activated ATM was detected using rabbit monoclonal anti-phospho-ATM Ser1981 (Cell Signaling). The ability of p53 to regulate apoptosis was detected using rabbit polyclonal anti-phospho-p53 Ser46 (Cell Signaling). Viral p24 was detected using mouse monoclonal anti-HIV-1-p24 (AIDS Research and Reference Reagent Program, Division of AIDS, NIAID, NIH). HuR was detected using mouse monoclonal anti-HuR 3A2 (Santa Cruz Biotechnology). hnRNP-K was detected using goat polyclonal anti-hnRNP-K P-20 (Santa Cruz Biotechnology). Coverslips were washed 3 times (5 mins each on an orbital shaker) with wash buffer (0.05% Tween-20 in PBS), followed by incubation with secondary antibodies conjugated to either Atto-550 or Atto-565 or Atto-647 for 60 mins at room temperature. Coverslips were washed 3 times (5 mins each on an orbital shaker) with wash buffer (0.05% Tween-20 in PBS). Coverslips were incubated in equilibration buffer (0.4% glucose, 2×SCC) for 5 mins and counter stained with 1 mg/ml DAPI (4′,6-diamidino-2-phenylindole; Life Technologies). Coverslips were mounted in glox buffer (3.7 mg/ml glucose oxidase, 1 U catalase) and imaged.

COc1cccc2c1C(=O)c1c(O)c3c(c(O)c1C2=O)C[C@@](O)(C(=O)CO)C[C@@H]3O[C@H]1C[C@H](N)[C@H](O)[C@H](C)O1 [Doxorubicin]
phosphorylation of ATM at Ser1981 (ATMpSer1981): phosphorylation of both ATMpSer1981 and p53pSer46 in the nucleus within 8 hours; also recorded: Phosphorylated ATM is detected
cellular location of hnRNP-K (hnRNP-K [1]): nuclear hnRNP-K within 8 hours; also recorded: nuclear hnRNPK within 8 hours
cellular location of hnRNP-K (hnRNP-K [2]; Ghost(3) cells, drug only, no HIV infection): nuclear hnRNP-K within 2 hours; also recorded: detected in the nucleus of Doxorubicin-treated cells between 2 and 4 hours post-treatment; also recorded: nuclear hnRNPK within 2 hours
cellular location of hnRNP-K (hnRNP-K [2]; cells concurrently infected and treated with Maraviroc, Tenofovir or Raltegravir, Doxorubicin added afterwards): hnRNPK localized to the nucleus; also recorded: nuclear hnRNPK within 3 hours of chemical-induced DNA damage
